Earlier results on eight molecules are cited in paper PMC12266345, “Discovery and characterization of selective lipase-inhibiting polyheterocyclic derivatives: a combined in silico and in vitro study” (Turkish Journal of Biology, 2025).

≈ marks a conversion by molar mass, not a printed value. Like-named read-outs stand apart in the source and are kept apart here.

This data set deals with lipase.
The mark [1] stands for this setting: ref Ruiz et al., 2006, Benarous et al., 2015.

`O=C(N[C@H](CO)[C@H](O)c1ccc([N+](=O)[O-])cc1)C(Cl)Cl` [Chloramphenicol]: where the note is “ref Liu et al., 2006”, the IC50 lipase inhibition is 220 ± 0.003 µg/mL (≈ 681 µM). `O.Oc1cc(O)c2c(c1)O[C@H](c1ccc(O)c(O)c1)[C@@H](O)C2` [catechin]: the IC50 lipase inhibition under setting [1] was 183 µg/mL.

As for `Cc1nc(-c2ccc(OCC(C)C)c(C#N)c2)sc1C(=O)O` [febuxostat], the IC50 lipase inhibition (ref Serseg and Benarous, 2018) was 660 µg/mL (≈ 2090 µM). In the case of `Nc1nc(=O)c2nc(CNc3ccc(C(=O)N[C@@H](CCC(=O)O)C(=O)O)cc3)cnc2[nH]1` [folic acid], the IC50 lipase inhibition (ref Serseg and Benarous, 2018) is 640 µg/mL (≈ 1450 µM). For the molecule `COc1ccc2c3c([nH]c2c1)C(C)=NCC3` [harmaline], the IC50 lipase inhibition under setting [1] is 830 µg/mL (≈ 3870 µM).

With `O=c1cc(O)cc(/C=C/c2ccc(O)c(O)c2)o1` [hispidin], the IC50 lipase inhibition under setting [1] is 179 µg/mL (≈ 727 µM).

In the case of `CCOC(=O)N1CCC(=C2c3ccc(Cl)cc3CCc3cccnc32)CC1` [loratadine], for the setting “ref Benarous et al., 2018”, the IC50 lipase inhibition is 440 ± 0.02 µg/mL (≈ 1150 µM). For `CN(C)[C@@H]1C(O)=C(C(N)=O)C(=O)[C@@]2(O)C(O)=C3C(=O)c4c(O)cccc4[C@@](C)(O)[C@H]3C[C@@H]12` [tetracycline], where the note is “ref Liu et al., 2006”, the IC50 lipase inhibition was 470 ± 0.005 µg/mL (≈ 1060 µM).
